One series concerns the target HCV replicon. Briefly: HCV replicon assay (luciferase). The format is cell-based, Hepatitis C virus (HCV). The settings on record: 5-2 Luc replicon cells, 24 hours with compound, luciferase emission; first symbol of Replicon/Western. For orientation: A replicon is a self-replicating genome or part of one, used to study replication in cells.
The subject of series [1] is HCV nonstructural protein NS5A. The series is described as follows: Quantitative Western blot assay. The format is cell-based, Hepatitis C virus (HCV). The settings on record: 9-13 replicon cells, 48 hours with compound, second symbol of Replicon/Western. The protocol:
Alternatively, the inhibitory activity of the compounds can be confirmed using a quantitative Western immunoblot assay utilizing antibodies specific for HCV non-structural proteins, such as NS3, NS4A NS5A and NS5B. In one embodiment of this assay, replicon cells are treated with varying concentrations of test compound to determine the concentration of test compound that yields a 50% reduction in the amount of a non-structural protein produced as compared to a control sample (IC50). A single non-structural protein may be quantified or multiple non-structural proteins may be quantified. Antibodies suitable for carrying out such immunoblot assays are available commercially (e.g., from BIODESIGN International, Saco, Me.).
Certain exemplary compounds of the invention were also tested for their ability to inhibit HCV replication using a quantitative Western blot analysis with antibodies specific for the HCV nonstructural protein NS5A. Actively dividing 9-13 replicon cells were seeded into 6-well plates at a density of 1×10^5 cells/well in a volume of 2 ml/well and incubated at 37° C. and 5% CO2 for 24 hours. Various concentrations of test compounds (in a volume of 10 ul) were added to the wells and the cells incubated for another 48 hours. Protein samples were prepared from the cultured cells, resolved on a SDS-PAGE gel and transferred to a nitrocellulose membrane. The membrane was blocked with 5% non-fat milk in PBS for 1 hour at room temperature. Primary antibody (anti NS5A antibody; BIODESIGN International, Saco, Me.) incubation was performed for 1 hour at room temperature, after which the membrane was washed 3 times (for 15 min per time) with PBST (PBS plus 0.1% Tween 20). Horseradish peroxidase conjugated secondary antibody incubation was performed for 1 hour at room temperature and the membrane was washed 3 times (for 15 min per time) with PBST. The membrane was then soaked in substrate solution (Pierce) and exposed to a film or quantified using an imager. In this assay, the amount of test compound that yielded a 50% reduction in the amount of NS5A protein translated as compared to a control sample (IC50) was determined.

The test system of the next series is HCV virus. The series is described as follows: HCV infection assay. The format is cell-based, Hepatitis C virus (HCV). The settings on record: hepatocyte cells from a donor, inoculated Day 3, RNA Day 8; read-out: IC50 HCV infection assay (HCV RNA, Taqman). The source says:
Alternatively, the inhibitory activity of the compounds may be confirmed in an HCV infection assay, such as the HCV infection assay described in Fournier et al., 1998, J. Gen. Virol. 79(10):2367:2374, the disclosure of which is incorporated herein by reference. In one embodiment of this assay, the amount of test compound that yields a 50% reduction in HCV replication or proliferation as compared to a control cell (IC50) may be determined. The extent of HCV replication may be determined by quantifying the amount of HCV RNA present in HCV infected cells. A specific method for carrying out such an assay is provided in the Examples section.
The activity of Compound 9 was also confirmed in an HCV infection assay. The assay was carried out essentially as described in Fournier et al., 1998, J. Gen. Virol. 79:2367-2374. Briefly, hepatocyte cells from a doner were plated on Day 1. On Day 3, the cells were inoculated with HCV virus and test compound was added. On Day 5, the medium was changed and test compound was added. On Day 7, the medium was changed and test compound was added. On Day 8, the RNA was isolated and the HCV RNA quantified using a Taqman assay.

Series [2] in a line: Safety studies in rats, subcutaneous and intravenous administration. As to the method: The safety of compound 9 was evaluated in rats by both subcutaneous and intravenous administration in several experiments. […] The experiments performed are summarized below.
In a second study compound 9 was administered by the IV route at doses of 10 and 30 mg/kg in 100% PEG. The volume administered for the 10 mg/kg dose was 0.67 ml/kg/day and volume given the 30 mg/kg group was 2 ml/kg/day. In addition, there were two control groups. One control received 100% PEG alone at a volume of 2 ml/kg/day while the other was an untreated sham control group. […] Parameters of study included: clinical observations, body weights, hematology, clinical chemistry, gross necropsy, organ weights, bone marrow assessment and histopathology of selected organs.
A vehicle control group received the 100% PEG alone at the same volume. Groups comprised 3 males and 3 females each. Before reducing the dose to 10 and 30 mg/kg two rats received 100 mg/kg IV at a volume of 1 ml/kg. […] Parameters of study included: clinical observations, body weights, hematology, clinical chemistry, gross necropsy, organ weights and histopathology of selected organs (including injection sites).

Series [3] in a line: Pharmacokinetics, plasma levels with liposome suspension vehicles. The format is in vivo, rats, monkeys and chimpanzees. The settings on record: subcutaneous, liposome suspension vehicles: 5 mg/ml in water with 100 or 200 mg/ml lecithin, or 100 mg/ml lecithin and 5 mg/ml cholesterol. As to the method:
The pharmacokinetic properties of compound 9 were calculated in rats, monkeys and chimpanzees using the intravenous and subcutaneous routes of administration with a variety of different delivery vehicles.

The nature of series [4]: Toxicokinetic determinations in rats. Particulars: rat.

By IC50 is commonly meant the midpoint of a concentration-inhibition curve. One may read the NOAEL as the highest dose or exposure tested at which no adverse effect was seen.

As for `O=C(Nc1cccc(-c2cc(-c3c(Cl)cccc3Cl)no2)c1)C(Cl)Cl` [Compound 9, 2,2-Dichloro-N-[3-[3-(2,6-dichlorophenyl)-5-isoxazolyl]phenyl] Acetamide], the IC50 on HCV replicon is ≤ 10 µM. Also, in series [1], the IC50 was ≤ 10 µM. In addition, the IC50 in the series on HCV virus was < 10 µM. In addition, in series [2] (IV 10 and 30 mg/kg, 7 days), the “other findings, second study” value is “no untoward findings”. Moreover, the “well tolerated dose, first study” value in series [2] (Sprague Dawley rats, SC and IV, dose escalation) is given as ≤ 30 mg/kg. Also, the “clinical signs at IV 60 mg/kg” value in series [2] (first study, Day 5, IV 60 mg/kg in 100% PEG) is “immediate clinical signs (collapsing, thrashing, dyspnea and reddish discolored urine) were observed”. Besides, the “time for symptoms to abate” value in series [2] (first study, IV 60 mg/kg) was ≤ 1 h. The “NOAEL (no observed adverse effect level)” value in series [2] (rat, IV, 7 days) is reported as 30 mg/kg. In series [2] (rat, intravenous, 14-days), this molecule gave a no observed adverse effect level (NOAEL) of 30 mg/kg. For the same molecule, the well tolerated dose in series [2] (rats, subcutaneous and intravenous) is ≤ 30 mg/kg/day. Further, the “hematology finding at 30 mg/kg” value in series [2] (second study, IV, 100% PEG, 7 days, relative to untreated control but not vehicle control) was “very slight decreases in red blood cells, hemoglobin and hematocrit”. For the same molecule, the necropsy findings result in series [2] (third study, IV 10 and 30 mg/kg) is reported as “no gross or microscopic morphological changes”. For the same molecule, the “clinical observations, body weights, hematology, clinical chemistry, organ weights” value in series [2] (third study, IV 10 and 30 mg/kg, versus vehicle control) was “unaffected by treatment”. Besides, the “mortality at 100 mg/kg IV” value in series [2] (third study, two rats, 100 mg/kg IV, 1 ml/kg) is “Both animals died within a minute or two of dosing”. Further, the plasma levels result in series [3] was “Sustained plasma levels were achieved”. In series [4] (IV), the T1/2 entry is “about 5 minutes”; the “exposure, IV route” value was “high exposure”; the “persistence of measurable compound” value is given as “still apparent after 2 hours”. In series [4] (SC), the Tmax result is given as “about 30 minutes”; the “exposure, subcutaneous route” value is listed as “much lower exposure”; the persistence of exposure result is on record as “remains sustained through 2 hours post-dosing”.
